Values joined by “and” are separate entries in the source; they are usually repeats but may differ in a detail not shown here. Equal values may be shown once.
Tests used:
wild type tobacco = assay: Kill curve of glyphosate in tissue culture; assay type: in vivo, Nicotiana tabaccum var Samsun; conditions: 0.005 mM in MS medium, two weeks
Excerpt: Selection on glyphosate A kill curve is constructed for growth of tobacco in tissue culture on glyphosate containing medium. This is done by inserting a stem segment ˜6 mm long and carrying a leaf node into MS medium containing a range of glyphosate isopropylamine concentrations. Four/five stem segments are used at each concentration.

[1] = test system: plants transformed with the Synechocystis sp. PCC6803 4-HPPD gene; assay: Explant bleaching test on MS agar, 4-HPPD transformants (Example 2); assay type: in vivo, Potato and tomato; conditions: subset of ZA1296 resistant plants
[2] = test system: tobacco plants transformed with the Pseudomonas 4-HPPD gene; assay: Explant bleaching test on MS agar, 4-HPPD transformants (Example 1); assay type: in vivo, Nicotiana tabacum var Samsun; conditions: subset of ZA1296 resistant plants
[3] = test system: primary transformants from pDV6-Bin; assay: Growth on herbicide-containing tissue culture medium; assay type: in vivo, Tobacco; conditions: a number of transgenics; 0.01 and 0.05 mM glyphosate; 10 and 40 ppm alachlor
DV6/HPPD tobacco = assay: Herbicide trial of DV6/HPPD cross (Example 10); assay type: in vivo; conditions: 800 g/ha on seedlings surviving 300 g/ha ZA1296
Wildtype tobacco = assay: Glyphosate spray test (Table 8 control); assay type: in vivo, Nicotiana tabaccum var Samsun
Experimental: (§1) A kill curve is established for the effect of glyphosate on wild type tobacco. Wild type tobacco growing in tissue culture is sub-cultured by taking stem segments and growing in fresh medium to generate 20 new plants. These are grown in tissue culture for one month before transfer to 3 inch pots in John Innes No 3 compost. They are initially covered in fleece to protect them. After uncovering they are allowed to acclimatise for four days before being sprayed. After spraying watering is only into the saucers i.e. no water is allowed to touch the leaves for five days. Scoring was done 8 days and 28 days after treatment.
(§2) Following construction of the glyphosate kill curve, a number of pDV1, 2 and 3 lines are spray tested with appropriate rates of glyphosate.

wild type controls = assay: Growth on herbicide-containing tissue culture medium; assay type: in vivo, Tobacco; conditions: 0.01 and 0.05 mM glyphosate; 10 and 40 ppm alachlor
[4] = test system: tobacco from cross DV3 #43B x ET4-208; assay: Glyphosate spray of DV3 #43B x ET4-208 seedlings; assay type: in vivo; conditions: 500 and 800 g/ha on seedlings tolerant to bleaching herbicides; scored 14 and 28 DAT
Wild type plants = assay: Pre-em/post-em herbicide treatment (Table 1); assay type: in vivo, Tobacco; conditions: post-em 800 g/ha
[5] = test system: pDV3 primary transformants (GOX/EPSPS tobacco); assay: Glyphosate spray test of pDV3 lines; assay type: in vivo, Nicotiana tabaccum var Samsun; set-up: scale not given here
Experimental: as §1, §2

[6] = test system: pDV6 plants expressing both glyphosate resistance genes and GST; assay: Pre-em/post-em herbicide treatment of DV6 plants (Table 1); set-up: species or system Tobacco; conditions: in vivo
[7] = no pre-em, third line (plant not given)

CC(C)N.O=C(O)CNCP(=O)(O)O [Glyphosate isopropylamine]
Growth of explant (wild type tobacco): No growth in any organ

CS(=O)(=O)c1cc(C(F)(F)F)ccc1C(=O)c1cnoc1C1CC1 [Isoxaflutole, 5-cyclopropyl-4-(2-methylsulphonyl-4-trifluoromethylbenzoyl)isoxazole]
resistance of the herbicide resistant transgenic plants [1]: resistant
resistance of the herbicide resistant transgenic plants [2]: even more resistant

O=C(O)CNCP(=O)(O)O [Glyphosate, glyphosate]
growth on tissue culture medium [3]: grow successfully
tolerance to spray (DV6/HPPD tobacco): demonstrate tolerance
dose/response to glyphosate spray (damage) (Wildtype tobacco; 12.33 g/ha): 2
dose/response to glyphosate spray (damage) (Wildtype tobacco; 37 g/ha): 3
dose/response to glyphosate spray (damage) (Wildtype tobacco; 100 g/ha): 20
dose/response to glyphosate spray (damage) (Wildtype tobacco; 300 g/ha): 80
dose/response to glyphosate spray (damage) (Wildtype tobacco; 1000 g/ha): 93
growth on tissue culture medium (wild type controls): fail to
resistance to post-emergence spray [4]: resistant
% Phytotoxicity (mean, 21 DAT) (Wild type plants; Wild type, no pre-em treatment): 86.25%
replicate score for damage, replicate a (Wild type plants; [7]): 90
replicate score for damage, replicate b (Wild type plants; [7]): 90
replicate score for damage, replicate c (Wild type plants; [7]): 90
replicate score for damage, replicate d (Wild type plants; [7]): 75
dose/response to glyphosate spray (damage) ([5]; pDV3 #11, 100 g/ha): 0
dose/response to glyphosate spray (damage) ([5]; pDV3 #11, 300 g/ha): 0
dose/response to glyphosate spray (damage) ([5]; pDV3 #11, 1000 g/ha): 25
dose/response to glyphosate spray (damage) ([5]; pDV3 #11, 3000 g/ha): 70
dose/response to glyphosate spray (damage) ([5]; pDV3 #11, 9000 g/ha): 80
dose/response to glyphosate spray (damage) ([5]; pDV3 #14, 100 g/ha): 7
dose/response to glyphosate spray (damage) ([5]; pDV3 #14, 300 g/ha): 22
dose/response to glyphosate spray (damage) ([5]; pDV3 #14, 1000 g/ha): 13
dose/response to glyphosate spray (damage) ([5]; pDV3 #14, 3000 g/ha): 33
dose/response to glyphosate spray (damage) ([5]; pDV3 #14, 9000 g/ha): 76
dose/response to glyphosate spray (damage) ([5]; pDV3 #19, 100 g/ha): 0
dose/response to glyphosate spray (damage) ([5]; pDV3 #19, 300 g/ha): 0
dose/response to glyphosate spray (damage) ([5]; pDV3 #19, 1000 g/ha): 0
dose/response to glyphosate spray (damage) ([5]; pDV3 #19, 3000 g/ha): 35
dose/response to glyphosate spray (damage) ([5]; pDV3 #19, 9000 g/ha): 80
dose/response to glyphosate spray (damage) ([5]; pDV3 #21, 100 g/ha): 0
dose/response to glyphosate spray (damage) ([5]; pDV3 #21, 300 g/ha): 5
dose/response to glyphosate spray (damage) ([5]; pDV3 #21, 1000 g/ha): 0
dose/response to glyphosate spray (damage) ([5]; pDV3 #21, 3000 g/ha): 24
dose/response to glyphosate spray (damage) ([5]; pDV3 #21, 9000 g/ha): 78
dose/response to glyphosate spray (damage) ([5]; pDV3 #31, 100 g/ha): 12
dose/response to glyphosate spray (damage) ([5]; pDV3 #31, 300 g/ha): 0
dose/response to glyphosate spray (damage) ([5]; pDV3 #31, 1000 g/ha): 4
dose/response to glyphosate spray (damage) ([5]; pDV3 #31, 3000 g/ha): 26
dose/response to glyphosate spray (damage) ([5]; pDV3 #31, 9000 g/ha): 78
dose/response to glyphosate spray (damage) ([5]; pDV3 #34, 100 g/ha): 0
dose/response to glyphosate spray (damage) ([5]; pDV3 #34, 300 g/ha): 0
dose/response to glyphosate spray (damage) ([5]; pDV3 #34, 1000 g/ha): 6
dose/response to glyphosate spray (damage) ([5]; pDV3 #34, 3000 g/ha): 30
dose/response to glyphosate spray (damage) ([5]; pDV3 #34, 9000 g/ha): 63
dose/response to glyphosate spray (damage) ([5]; pDV3 #36, 100 g/ha): 0
dose/response to glyphosate spray (damage) ([5]; pDV3 #36, 300 g/ha): 0
dose/response to glyphosate spray (damage) ([5]; pDV3 #36, 1000 g/ha): 0
dose/response to glyphosate spray (damage) ([5]; pDV3 #36, 3000 g/ha): 0
dose/response to glyphosate spray (damage) ([5]; pDV3 #36, 9000 g/ha): 0
dose/response to glyphosate spray (damage) ([5]; pDV3 #37, 100 g/ha): 0
dose/response to glyphosate spray (damage) ([5]; pDV3 #37, 300 g/ha): 0
dose/response to glyphosate spray (damage) ([5]; pDV3 #37, 1000 g/ha): 9
dose/response to glyphosate spray (damage) ([5]; pDV3 #37, 3000 g/ha): 24
dose/response to glyphosate spray (damage) ([5]; pDV3 #37, 9000 g/ha): 72
dose/response to glyphosate spray (damage) ([5]; pDV3 #43, 100 g/ha): 0
dose/response to glyphosate spray (damage) ([5]; pDV3 #43, 300 g/ha): 0
dose/response to glyphosate spray (damage) ([5]; pDV3 #43, 1000 g/ha): 0
dose/response to glyphosate spray (damage) ([5]; pDV3 #43, 3000 g/ha): 6
dose/response to glyphosate spray (damage) ([5]; pDV3 #43, 9000 g/ha): 73
dose/response to glyphosate spray (damage) ([5]; pDV3 #44, 100 g/ha): 0
dose/response to glyphosate spray (damage) ([5]; pDV3 #44, 300 g/ha): 40
dose/response to glyphosate spray (damage) ([5]; pDV3 #44, 1000 g/ha): 45
dose/response to glyphosate spray (damage) ([5]; pDV3 #44, 3000 g/ha): 78
dose/response to glyphosate spray (damage) ([5]; pDV3 #44, 9000 g/ha): 85
dose/response to glyphosate spray (damage) ([5]; pDV3 #45, 100 g/ha): 0
dose/response to glyphosate spray (damage) ([5]; pDV3 #45, 300 g/ha): 0
dose/response to glyphosate spray (damage) ([5]; pDV3 #45, 1000 g/ha): 3
dose/response to glyphosate spray (damage) ([5]; pDV3 #45, 3000 g/ha): 9
dose/response to glyphosate spray (damage) ([5]; pDV3 #45, 9000 g/ha): 70
dose/response to glyphosate spray (damage) ([5]; pDV3 #47, 100 g/ha): 5
dose/response to glyphosate spray (damage) ([5]; pDV3 #47, 300 g/ha): 0
dose/response to glyphosate spray (damage) ([5]; pDV3 #47, 1000 g/ha): 0
dose/response to glyphosate spray (damage) ([5]; pDV3 #47, 3000 g/ha): 11
dose/response to glyphosate spray (damage) ([5]; pDV3 #47, 9000 g/ha): 72
dose/response to glyphosate spray (damage) ([5]; pDV3 #60, 100 g/ha): 0
dose/response to glyphosate spray (damage) ([5]; pDV3 #60, 300 g/ha): 0
dose/response to glyphosate spray (damage) ([5]; pDV3 #60, 1000 g/ha): 0
dose/response to glyphosate spray (damage) ([5]; pDV3 #60, 3000 g/ha): 19
dose/response to glyphosate spray (damage) ([5]; pDV3 #60, 9000 g/ha): 63
dose/response to glyphosate spray (damage) ([5]; pDV3 #64, 100 g/ha): 0
dose/response to glyphosate spray (damage) ([5]; pDV3 #64, 300 g/ha): 5
dose/response to glyphosate spray (damage) ([5]; pDV3 #64, 1000 g/ha): 0
dose/response to glyphosate spray (damage) ([5]; pDV3 #64, 3000 g/ha): 12
dose/response to glyphosate spray (damage) ([5]; pDV3 #64, 9000 g/ha): 63
replicate score for damage, replicate a [6]: 75 and 100
replicate score for damage, replicate b [6]: 0
replicate score for damage, replicate c [6]: 0
replicate score for damage, replicate d [6]: 0 and 95

From US20030041357A1, “Herbicide resistant plants” (priority 1996, published 2003)
